Experimental data published in patent US7772252B2, “Heterocyclic substituted carbonyl derivatives and their use as dopamine D3 receptor ligands” (Aventis Pharmaceuticals Inc., priority 2001, dated 2010).

Target: T1, cloned human dopamine D3 receptors (Homo sapiens, UniProt P35462)
T1 construct: expressed in transfected cells; membrane homogenate
Experiment: [N-Methyl-3H]Spiroperidol binding to cloned human dopamine D3 receptors
Conditions: read-out: D3 Ki
In short: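 Stably transfected CHO cells expressing cloned human D3 receptor were used as membranes homogenized in 10% DMSO. Ligand was [N-methyl-3H]spiroperidol displacement.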

T1 sequence (P35462 whole entry): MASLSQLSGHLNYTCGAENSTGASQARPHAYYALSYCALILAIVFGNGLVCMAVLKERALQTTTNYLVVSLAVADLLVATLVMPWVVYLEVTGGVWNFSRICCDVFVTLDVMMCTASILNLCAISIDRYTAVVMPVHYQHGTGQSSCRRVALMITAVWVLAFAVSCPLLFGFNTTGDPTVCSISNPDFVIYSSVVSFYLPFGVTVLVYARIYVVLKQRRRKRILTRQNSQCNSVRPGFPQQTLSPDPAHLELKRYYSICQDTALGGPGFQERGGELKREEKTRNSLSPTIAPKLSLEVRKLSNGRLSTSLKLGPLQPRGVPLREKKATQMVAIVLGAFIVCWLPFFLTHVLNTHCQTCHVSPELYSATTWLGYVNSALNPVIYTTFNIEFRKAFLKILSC

| Structure (SMILES) | Ki [nM] |
| --- | --- |
| Cc1nc(Cl)c(Cl)n1CCCNC(=O)[C@@H]1C[C@H]1CN1CCN(c2csc3cc(C(F)(F)F)ccc23)CC1 [compound 832512] | 15.7 |
| CCC1CCC(NC(=O)C2CC2CN2CCC(c3cc4cc(OC)cc(Br)c4o3)CC2)CC1 (racemic) [compound 830112] | 54 |
| COc1c(F)ccc2c(C3CCN(C[C@@H]4C[C@H]4C(=O)NCCCn4ccnc4)CC3)noc12 [compound 831309] | 40.6 |
| CC1CCC(NC(=O)C2CC2CN2CCN(c3n[nH]c4cc(Cl)ccc34)CC2)CC1 (racemic) [compound 830124] | 1.84 |
| COc1cccc2c(C3CCN(C[C@@H]4C[C@H]4C(=O)N4CCCC(Cn5ccnc5)C4)CC3)noc12 (mixture of isomers) [compound 833910] | 1.09 |
| Cn1nc(C2CCN(C[C@@H]3C[C@H]3C(=O)N3CCC(Cn4ccnc4)CC3)CC2)c2cccc(C(F)(F)F)c21 [A002329095] | 26.5 |
| CC1CCCCN1C(=O)[C@@H]1C[C@H]1CN1CCC(c2noc3ccsc23)CC1 (mixture of isomers) [compound 829462] | 9.65 |
| O=C(NCCc1cccc(F)c1)C1CC1CN1CCC(c2noc3ccsc23)CC1 (racemic) [compound 831801] | 11.2 |
| Cn1nc(C2CCN(C[C@@H]3C[C@H]3C(=O)N3CCC[C@@H](Cn4ccnc4)C3)CC2)c2cccc(C(F)(F)F)c21 [A002439260] | 0.303 |
| O=C([C@@H]1C[C@H]1CN1CCN(c2csc3cc(C(F)(F)F)ccc23)CC1)N1CCCC(CN2CCCNCC2)C1 (mixture of isomers) [A002437358] | 8.86 |
| COc1ccccc1CN1CCC(NC(=O)[C@@H]2C[C@H]2CN2CCN(c3csc4cc(C(F)(F)F)ccc34)CC2)CC1 [compound 832739] | 2.89 |
| CN1CCCC1CCNC(=O)[C@@H]1C[C@H]1CN1CCN(c2csc3cc(C(F)(F)F)ccc23)CC1 (mixture of isomers) [compound 831884] | 1.94 |
| C[C@H]1CC[C@H](NC(=O)[C@@H]2C[C@H]2CN2CCN(c3nc4cccc5c4n3CCC5)CC2)CC1 [compound 833699, 2R-[4-(5,6-Dihydro-4H-imidazo[4,5,1-ij]quinolin-2-yl)-piperazin-1-ylmethyl]-1R-cyclopranecarboxylic acid (trans-4-methyl-cyclohexyl)-amide] | 7.2 |
| C[C@H]1CC[C@H](NC(=O)[C@@H]2C[C@H]2CN2CCC(c3nn(-c4ccc(F)cc4)c4cc(C(F)(F)F)ccc34)CC2)CC1 [compound 833698] | 134 |

Second part, the molecule after the results:

| Ki [nM] | Structure (SMILES) |
| --- | --- |
| 21.7 | O=C(NC1CCN(Cc2ccc(F)cc2F)CC1)[C@@H]1C[C@H]1CN1CCN(c2csc3cc(C(F)(F)F)ccc23)CC1 [compound 833516] |
| 2.68 | O=C(NC1CCN(Cc2cccc(F)c2)CC1)C1CC1CN1CCC(c2noc3ccsc23)CC1 (racemic) [compound 831994] |
| 13.1 | O=C(C1CC1CN1CCC(c2noc3ccsc23)CC1)N1CCC(n2ccnc2)CC1 (racemic) [compound 832193] |
| 20.8 | O=C(N[C@H]1CC[C@H](O)CC1)[C@@H]1C[C@H]1CN1CCN(c2nn(-c3ccc(C(F)(F)F)cc3)c3ccsc23)CC1 [compound 832648] |
| 145 | O=C(NCCCN1CCCCC1)[C@@H]1C[C@H]1CN1CCC(c2noc3c(C(F)(F)F)cccc23)CC1 [compound 832272] |
| 8.32 | O=C(NC1CCN(Cc2cccnc2)CC1)C1CC1CN1CCC(c2noc3ccsc23)CC1 (racemic) [compound 832394] |
| 6.79 | O=C(NCc1ccc(-c2ccccc2)cc1)C1CC1CN1CCC(c2noc3ccsc23)CC1 (racemic) [compound 831455] |
| 5 | O=C(NCCc1ccc(Cl)cc1)C1CC1CN1CCC(c2noc3ccsc23)CC1 (racemic) [compound 831800] |
| 5.06 | O=C([C@@H]1C[C@H]1CN1CCC(c2noc3ccsc23)CC1)N1CCC(Cc2ccccc2)CC1 [compound 831194] |
| 58.5 | C=CCN1CCN(C(=O)C2CC2CN2CCC(c3noc4ccsc34)CC2)CC1 (racemic) [compound 832189] |
| 66.1 | O=C(NC1CCN(C(=O)c2ccc(Cl)s2)CC1)C1CC1CN1CCC(c2noc3ccsc23)CC1 (racemic) [compound 832487] |
